In publication PMC12691779, “Creatine and Taurine as Novel Competitive Inhibitors of Acetylcholinesterase: A Biochemical Basis for Nutritional Modulation of Brain Function” (International Journal of Molecular Sciences, 2025):
Read-outs that look alike come from different tables or passages of the source.

Legend:
[1] = target: Human acetylcholinesterase (AChE; EC 3.1.1.7) (Homo sapiens, UniProt P22303); assay: modified Ellman assay with purified AChE, Lineweaver-Burk kinetics; type: biochemical
[2] = substrate: CC(=O)SCC[N+](C)(C)C; assay: Km from modified Ellman assay, Lineweaver-Burk (enzyme only); type: biochemical, Homo sapiens; details: active site (substrate)
Source text: Km from modified Ellman assay, Lineweaver-Burk (enzyme only) on Human acetylcholinesterase (AChE; EC 3.1.1.7) | The reaction system contained acetylthiocholine (ACth) as the substrate

Molecule: CN(CC(=O)O)C(=N)N [CR, Creatine]
- Ki ([1]; read-out: Creatine 0.15 mM): 199 ± 5.21 µM

Molecule: NCCS(=O)(=O)O [TA, Taurine]
- Ki ([1]; read-out: Taurine 0.15 mM): 274 ± 5.94 µM

B1: Human acetylcholinesterase (AChE; EC 3.1.1.7) (Homo sapiens) (protein)
chain: EGREDAELLVTVRGGRLRGIRLKTPGGPVSAFLGIPFAEPPMGPRRFLPPEPKQPWSGVVDATTFQSVCYQYVDTLYPGFEGTEMWNPNRELSEDCLYLNVWTPYPRPTSPTPVLVWIYGGGFYSGASSLDVYDGRFLVQAERTVLVSMNYRVGAFGFLALPGSREAPGNVGLLDQRLALQWVQENVAAFGGDPTSVTLFGESAGAASVGMHLLSPPSRGLFHRAVLQSGAPNGPWATVGMGEARRRATQLAHLVGCPPGGTGGNDTELVACLRTRPAQVLVNHEWHVLPQESVFRFSFVPVVDGDFLSDTPEALINAGDFHGLQVLVGVVKDEGSYFLVYGAPGFSKDNESLISRAEFLAGVRVGVPQVSDLAAEAVVLHYTDWLHPEDPARLREALSDVVGDHNVVCPVAQLAGRLAAQGARVYAYVFEHRASTLSWPLWMGVPHGYEIEFIFGIPLDPSRNYTAEEKIFAQRLMRYWANFARTGDPNEPRDPKAPQWPPYTAGAQQYVSLDLRPLEVRRGLRAQACAFWNRFLPKLLSATDTLDEAERQWKAEFHRWSSYMVHWKNQFDHYSKQDRCSDL
- Km [2]: 1.73 ± 0.0147 µM
- Vmax [2]: 131 µM/min
